Consider six compounds from paper PMC7138916 (Pharmacology Research & Perspectives, 2020).

One data set deals with human P‐gp (MDR1‐MDCK) (Homo sapiens, UniProt P08183). In words: Bidirectional permeability and efflux ratio in MDR1‐MDCK cells. The note with it: MDR1‐MDCK cell line; for Efflux ratio: P app(B–A)/P app(A–B). The data set is classed as in vitro ADME.
The target in another data set is human P-gp (MDR1) (Homo sapiens, UniProt P08183). The data set is described as above. The data set is classed as in vitro ADME. The note with it: human; for Papp A→B at 2 h, 1 μmol/L / Papp B→A at 2 h, 1 μmol/L: MDCK-MDR1.
Chain of human P-gp (MDR1) (P08183 whole entry): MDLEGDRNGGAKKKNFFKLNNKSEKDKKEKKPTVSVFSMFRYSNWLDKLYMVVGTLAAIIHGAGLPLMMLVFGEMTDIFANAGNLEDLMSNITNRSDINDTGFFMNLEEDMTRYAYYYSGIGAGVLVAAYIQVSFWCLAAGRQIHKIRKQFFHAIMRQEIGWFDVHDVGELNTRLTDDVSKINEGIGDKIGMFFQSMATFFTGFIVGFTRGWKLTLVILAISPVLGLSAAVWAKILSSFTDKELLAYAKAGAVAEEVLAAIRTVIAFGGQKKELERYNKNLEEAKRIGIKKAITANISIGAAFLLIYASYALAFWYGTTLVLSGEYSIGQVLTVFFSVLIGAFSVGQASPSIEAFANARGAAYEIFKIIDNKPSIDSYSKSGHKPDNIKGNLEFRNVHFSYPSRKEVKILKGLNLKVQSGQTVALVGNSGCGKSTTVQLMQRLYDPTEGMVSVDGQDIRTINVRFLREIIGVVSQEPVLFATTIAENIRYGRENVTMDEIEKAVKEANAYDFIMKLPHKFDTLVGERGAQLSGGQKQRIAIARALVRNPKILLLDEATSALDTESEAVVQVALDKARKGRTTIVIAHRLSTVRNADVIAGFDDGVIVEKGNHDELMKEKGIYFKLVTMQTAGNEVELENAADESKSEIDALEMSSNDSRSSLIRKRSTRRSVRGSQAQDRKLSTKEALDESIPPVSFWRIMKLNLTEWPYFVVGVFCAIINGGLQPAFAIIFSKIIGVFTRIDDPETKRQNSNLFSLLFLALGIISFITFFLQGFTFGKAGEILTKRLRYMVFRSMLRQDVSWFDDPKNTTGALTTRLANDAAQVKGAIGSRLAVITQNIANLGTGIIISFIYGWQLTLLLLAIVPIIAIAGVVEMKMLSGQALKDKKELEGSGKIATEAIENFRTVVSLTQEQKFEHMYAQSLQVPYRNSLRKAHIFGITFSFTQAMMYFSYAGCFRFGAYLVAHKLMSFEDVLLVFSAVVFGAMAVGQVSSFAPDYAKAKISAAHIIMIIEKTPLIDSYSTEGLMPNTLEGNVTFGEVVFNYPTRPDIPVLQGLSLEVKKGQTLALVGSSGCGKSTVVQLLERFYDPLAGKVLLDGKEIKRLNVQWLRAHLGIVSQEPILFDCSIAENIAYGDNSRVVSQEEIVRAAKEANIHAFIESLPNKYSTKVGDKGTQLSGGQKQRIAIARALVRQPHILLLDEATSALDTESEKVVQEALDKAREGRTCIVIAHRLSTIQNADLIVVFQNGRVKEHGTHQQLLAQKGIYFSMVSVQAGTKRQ
Data set [1] can be described thus: Rat pharmacokinetic study, IV single bolus. The settings on record: for Vd / clearance / half-life: male, Sprague-Dawley, in vivo, iv.
For data set [2] the following is noted: cited from earlier work.
Data set [3] is described as follows: Bidirectional permeability and efflux ratio in Caco‐2 cells. Format: in vitro ADME, human. The settings on record: human, Caco-2.
A further data set relates to Caco‐2 cell line. The data set is described as above. The note with it: Caco‐2 cell line; for Efflux ratio: P app(B–A)/P app(A–B). The data set is classed as in vitro ADME, human.
Data set [4] in a line: Bidirectional permeability in parental MDCK cells. Format: in vitro ADME, Canine. The note with it: dog, MDCK.
The test system of data set [5] is efflux transporters (eg, P‐gp, BCRP, MRPs). In words: Classification as efflux transporter substrate. The settings on record: for Efflux transporter substrate: Yes/No; for Class (based on membrane permeability and ER value): parental MDCK, MDR1‐MDCK, and Caco‐2 cell lines.
Data set [6] in a line: Rat microdialysis at additional two brain positions. Format: in vivo. The note with it: steady state, n = 3, mean ± SD.
Data set [7] is described as follows: Rat brain and blood microdialysis at steady state. The note with it: rat; for concentration at 6 h: male, Sprague-Dawley, in vivo, iv, C m,brain.
Setting [8] is: steady‐state unbound concentration in brain (right striatum), microdialysis, IV infusion, mean ± SD.
Where [9] appears, read: IV single bolus, n = 3, mean ± SD.

Chain of human P‐gp (MDR1‐MDCK) (P08183 whole entry): as above

As to `COc1ccc([C@@H]2Sc3ccccc3N(CCN(C)C)C(=O)[C@@H]2OC(C)=O)cc1` [Diltiazem, diltiazem], the Efflux ratio at human P‐gp (MDR1‐MDCK) turned out to be 1.49. Besides, on human P-gp (MDR1), the Papp A→B at 2 h, 1 μmol/L stood at 12.5 ± 3.1 ×10⁻⁶ cm/s and the Papp B→A at 2 h, 1 μmol/L is 18.7 ± 1.9 ×10⁻⁶ cm/s. Besides, on human P-gp (MDR1) (MDCK-MDR1, Efflux ratio, MDR1‐MDCK cell line, P app(B–A)/P app(A–B)), the efflux ratio at 2 h, 1 μmol/L is less than 2. In data set [1], the Vd came out at 2.85 ± 0.3 L/kg, the clearance stood at 97.7 ± 18.8 mL/min/kg and the half-life is 0.823 ± 0.325 h. In [2], the “reported mean values of rat plasma CL” value is 90.3 mL/min/kg. In data set [3], the Papp A→B at 2 h, 5 μmol/L came to 21.7 ± 2.3 ×10⁻⁶ cm/s and the Papp B→A at 2 h, 5 μmol/L came out at 20.1 ± 2.3 ×10⁻⁶ cm/s. In addition, the Efflux ratio with Caco‐2 cell line was determined as 0.926. Moreover, the Efflux ratio entry in the data set on Caco‐2 cell line (listed as diltiazem) was “less than 2.0”. For the same compound, in data set [4], the Papp A→B at 2 h, 1 μmol/L amounted to 23.2 ± 2.6 ×10⁻⁶ cm/s; the Papp B→A at 2 h, 1 μmol/L came to 13.6 ± 1.3 ×10⁻⁶ cm/s; the Papp at 2 h, 1 μmol/L worked out at 18.4 ± 5.5 ×10⁻⁶ cm/s. In data set [5], the Efflux transporter substrate entry is “No”; the “Class (based on membrane permeability and ER value)” value (from here on “Class”) is “Class I”.

Regarding `CC(=O)Nc1ccc(O)cc1` [Acetaminophen], on human P-gp (MDR1), the Papp A→B at 2 h, 1 μmol/L was found to be 18.5 ± 4.6 ×10⁻⁶ cm/s and the Papp B→A at 2 h, 1 μmol/L was 14.3 ± 0.9 ×10⁻⁶ cm/s. In [1], this compound gave a Vd of 2.87 ± 1.44 L/kg and a half-life of 4.96 ± 2.31 h. For the same compound, in data set [3], the Papp A→B at 2 h, 5 μmol/L was found to be 19.6 ± 2.1 ×10⁻⁶ cm/s and the Papp B→A at 2 h, 5 μmol/L is 19.6 ± 1.9 ×10⁻⁶ cm/s. In [4], the Papp A→B at 2 h, 1 μmol/L worked out at 16.7 ± 0.6 ×10⁻⁶ cm/s; the Papp B→A at 2 h, 1 μmol/L was found to be 14.2 ± 0.9 ×10⁻⁶ cm/s; the Papp at 2 h, 1 μmol/L is 15.5 ± 1.5 ×10⁻⁶ cm/s. For the same compound, the “C m,brain” value in data set [6] (Frontal cortex) was determined as 4.79 ± 0.34 µmol/L. Also, in data set [6] (Hypothalamus), the “C m,brain” value is 4.62 ± 0.82 µmol/L. This compound also displayed a concentration at 6 h in data set [7] (setting [8]) of 3450 ± 820 nM.

On to `Cc1c(N)c(=O)n(-c2ccccc2)n1C` [4‐Aminoantipyrine, 4‐aminoantipyrine], for which the “P app(A–B)” value is 39.1 ± 3.4 10^−6 cm/s on human P‐gp (MDR1‐MDCK) (1 μmol/L, 2 hours, n = 4) and 36.1 ± 2.5 10^−6 cm/s with Caco‐2 cell line (5 μmol/L, 2 hours, n = 4). The “P app(B–A)” value is recorded as 25.9 ± 1.7 10^−6 cm/s at human P‐gp (MDR1‐MDCK) (1 μmol/L, 2 hours, n = 4) and 25.8 ± 1.5 10^−6 cm/s with Caco‐2 cell line (5 μmol/L, 2 hours, n = 4). In addition, the Efflux ratio on human P‐gp (MDR1‐MDCK) was 0.662; at human P‐gp (MDR1‐MDCK) (listed as 4‐aminoantipyrine) it was “less than 2.0”; with Caco‐2 cell line it was 0.713; with Caco‐2 cell line (listed as 4‐aminoantipyrine), “less than 2.0”. Further, the “T 1/2” value in [1] (setting [9]) came out at 0.883 ± 0.025 h. The compound also gave a V ss in data set [1] (setting [9]) of 0.772 ± 0.018 L/kg. The same compound displayed a CL in [1] (plasma, IV single bolus, n = 3, mean ± SD) of 17.7 ± 0.8 mL/min/kg. In [7] (concentration in CSF at end of infusion (6 hours), n = 3‐4, mean ± SD), the C csf turned out to be 5.82 ± 0.49 µmol/L. The “C csf lower than C m,brain by” value in [7] (steady state) is on record as “about 25%”. Besides, the “C m,blood” value in [7] (steady‐state unbound concentration in blood, microdialysis, IV infusion, n = 3‐4, mean ± SD) was determined as 6.73 ± 0.32 µmol/L. Besides, the “C m,brain” value in data set [7] (setting [8]) was 7.71 ± 0.67 µmol/L. Also, the Efflux transporter substrate entry in [5] is on record as “No”. Further, the “Class” value in [5] is “Class I”.

For `Nc1nnc(-c2cccc(Cl)c2Cl)c(N)n1` [Lamotrigine, lamotrigine], in data set [1], the Vd worked out at 1.86 ± 0.18 L/kg, the clearance turned out to be 1.48 ± 0.21 mL/min/kg and the half-life was 15.6 ± 3 h. The “reported mean values of rat plasma CL” value in data set [2] is recorded as 0.83 mL/min/kg. The same compound returned a concentration at 6 h in data set [7] (setting [8]) of 757 ± 42 nM. Besides, the “C csf higher than C m,brain by” value in [7] (steady state) is on record as 45%.

As for `NC(=O)N1c2ccccc2C=Cc2ccccc21` [Carbamazepine, carbamazepine], the Efflux ratio on human P‐gp (MDR1‐MDCK) turned out to be 0.665. Moreover, the Efflux ratio result on human P‐gp (MDR1‐MDCK) (listed as carbamazepine) is on record as “less than 2.0”. In addition, at human P-gp (MDR1), the Papp A→B at 2 h, 1 μmol/L stood at 34.3 ± 1.2 ×10⁻⁶ cm/s and the Papp B→A at 2 h, 1 μmol/L amounted to 22.8 ± 0.5 ×10⁻⁶ cm/s. In data set [1], this compound gave a Vd of 0.745 ± 0.081 L/kg, a clearance of 18.1 ± 2.9 mL/min/kg and a half-life of 0.993 ± 0.115 h. In addition, in [3], the Papp A→B at 2 h, 5 μmol/L came out at 33.1 ± 2.3 ×10⁻⁶ cm/s and the Papp B→A at 2 h, 5 μmol/L was determined as 22 ± 1 ×10⁻⁶ cm/s. In addition, in the data set with Caco‐2 cell line, the Efflux ratio is given as 0.662. In addition, the Efflux ratio entry with Caco‐2 cell line (listed as carbamazepine) is listed as “less than 2.0”. In [4], the Papp A→B at 2 h, 1 μmol/L worked out at 34.2 ± 2.6 ×10⁻⁶ cm/s and the Papp at 2 h, 1 μmol/L is 27.5 ± 7.5 ×10⁻⁶ cm/s. Moreover, the concentration at 6 h in data set [7] (setting [8]) is 1370 ± 170 nM. Also, the “C csf higher than C m,brain by” value in [7] (steady state) is on record as 25%. Moreover, in [5], the Efflux transporter substrate result is on record as “No”; the “Class” value is “Class I”.

In the case of `Cc1cc(=O)n(-c2ccccc2)n1C` [Antipyrine], at human P-gp (MDR1), the Papp A→B at 2 h, 1 μmol/L was 38.2 ± 2.1 ×10⁻⁶ cm/s and the Papp B→A at 2 h, 1 μmol/L amounted to 25.8 ± 1.9 ×10⁻⁶ cm/s. For the same compound, in data set [1], the Vd was determined as 0.724 ± 0.051 L/kg, the clearance came to 4.81 ± 0.77 mL/min/kg and the half-life was 1.99 ± 0.43 h. Further, in data set [3], the Papp A→B at 2 h, 5 μmol/L came out at 36.2 ± 1.2 ×10⁻⁶ cm/s and the Papp B→A at 2 h, 5 μmol/L amounted to 25.1 ± 0.6 ×10⁻⁶ cm/s. In addition, the “C m,brain” value in data set [6] (Frontal cortex) was 3.66 ± 1.19 µmol/L. Besides, the “C m,brain” value in [6] (Hypothalamus) came to 3.81 ± 0.25 µmol/L. Moreover, in [5], the Efflux transporter substrate result is given as “No”; the “Class” value is “Class I”.
